From patent US12636290B2, “BET inhibitors for modulating DUX4 expression in FSHD” (Saint Louis University, priority 2018, dated 2026) come the findings set out here.

The structures appear in SMILES notation. Read-outs that look alike come from different tables or passages of the source.

As a reminder, the IC50 is the concentration needed to halve the response being measured.

This assay has as its system DUX4 expression (surrogate marker MBD3L2). The assay is described as follows: Screening: qPCR analysis of DUX4 target gene MBD3L2 in differentiating MB200 FSHD2 muscle cells. In kind it is cell-based. The following applies: Homo sapiens, 40 hours, DUX4 expression inferred from surrogate marker MBD3L2 expression (qPCR, normalized to RPL30). The method, then:
Cells and Cell Culture. Primary human myoblast cell lines, immortalized by retroviral transduction of cyclin-dependent kinase 4 (CDK4) and human telomerase reverse transcriptase (hTERT) (Stadler, et al., 2011), were obtained from the Fields Center at the University of Rochester (world-wide-web at urmc.rochester.edu/fields-center.aspx). Immortalized myoblasts were grown in Ham's F-10 Nutrient Mix (Gibco, Waltham, MA, USA) supplemented with 20% HyClone Fetal Bovine Serum (GE Healthcare Life Sciences, Pittsburgh, PA, USA), 100 U/100 μg penicillin/streptomycin (Gibco), 10 ng/ml recombinant human fibroblast growth factor (Promega Corporation, Madison, WI, USA) and 1 μM dexamethasone (Sigma-Aldrich). Differentiation of myoblasts into myotubes was achieved by switching the fully confluent myoblast monolayer into Dulbecco's Modified Eagle Medium (DMEM) (Gibco) containing 1% horse serum (Gibco), 100 U/100 μg penicillin/streptomycin, 10 μg/ml insulin (Sigma-Aldrich) and 10 μg/ml transferrin (Sigma-Aldrich) (HS/IT media) or DMEM:F12 Nutrient Mixture (1:1, Gibco) supplemented with 2% KnockOut Serum Replacement (Gibco), 100 U/100 μg penicillin/streptomycin, 10 μg/ml insulin and 10 μg/ml transferrin (KSR media) for 2-6 days.
Screening: qPCR analysis of DUX4 target genes MBD3L2. For screening compounds, differentiating MB200 FSHD2 muscle cells were exposed to BET inhibitors at a variety of concentrations for 40 hours to determine the effects of the drugs on DUX4 expression. Cell lysates were prepared using Cells-to-Ct Bulk Lysis Reagents (Invitrogen, Waltham, MA, USA). Gene expression was measured by quantitative polymerase chain reaction (qPCR) was carried out on a QuantStudio 5 (Applied Biosystems, Waltham, MA, USA) using TaqMan Gene Expression Assays (Applied Biosystems) and TaqMan Fast Virus 1-Step Master Mix (Invitrogen). The relative expression levels of DUX4 target gene methyl-CpG binding domain protein 3 like 2 (MBD3L2), was normalized to that of the reference gene ribosomal protein L30 (RPL30), which was included in multiplex (two gene) PCR reactions. TaqMan Gene Expression Assay ID numbers: MBD3L2, Hs00544743_m1; RPL30, Hs00265497_m1. Data is expressed as relative expression with the expression in absence of inhibitors set to one.
Analysis of MBD3L2 expression in cultured FSHD2 cells. DUX4 mRNA is present in very low levels, even in differentiating FSHD2 myoblasts, so DUX4 target gene MBD3L2 was used as a surrogate marker of DUX4 expression. FSHD2 patient derived muscle cells were analyzed to determine whether BET inhibitors affect MBD3L2 expression, indicating a reduction in DUX4 expression.
In general terms: In qPCR the cycle at which signal appears reflects the starting amount.

As for `C[C@H]1C(=O)N(C)CCN1CCOc1ccc(-c2ccc3cc(-c4cn(C)c(=O)c5[nH]ccc45)ccc3n2)cc1` [SLU-2236, (S)-4-{2-[4-(2-(2,4-dimethyl-3-oxopiperazin-1-yl)ethoxy)phenyl]quinolin-6-yl}-6-methyl-1H-pyrrolo[2,3-c]pyridin-7(6H)-one], the IC50 by setting is: (read-out: DUX4* MT FSHD2: IC50) 13 nM; (read-out: DUX4* MT FSHD2 IC50) 13 nM.
Turning to `C[C@@H]1C(=O)N(C)CCN1CCOc1ccc(-c2cc3ccc(-c4cn(C)c(=O)c5[nH]ccc45)cc3cn2)cc1` [SLU-2217, (R)-4-{3-[4-(2-(2,4-dimethyl-3-oxopiperazin-1-yl)ethoxy)phenyl]isoquinolin-7-yl}-6-methyl-1H-pyrrolo[2,3-c]pyridin-7(6H)-one], the IC50 was 22 nM (read-out: DUX4* MT FSHD2: IC50) and 22 nM (read-out: DUX4* MT FSHD2 IC50).
With `CCCN1CCN(CCOc2ccc(-c3ccc4cc(-c5cn(C)c(=O)c6[nH]ccc56)ccc4n3)cc2)CC1=O` [SLU-2282, 6-methyl-4-{2-[4-(2-(3-oxo-4-propylpiperazin-1-yl)ethoxy)phenyl]quinolin-6-yl}-1H-pyrrolo[2,3-c]pyridin-7(6H)-one], the IC50 reads like this: (read-out: DUX4* MT FSHD2: IC50) 54 nM; (read-out: DUX4* MT FSHD2 IC50) 54 nM.
`CCn1cc(-c2ccc3nc(-c4ccc(OCCN5CCN(C)C(=O)[C@H]5C)cc4)ccc3c2)c2cc[nH]c2c1=O` [SLU-2296, (R)-4-{2-[4-(2-(2,4-dimethyl-3-oxopiperazin-1-yl)ethoxy)phenyl]quinolin-6-yl}-6-ethyl-1H-pyrrolo[2,3-c]pyridin-7(6H)-one]: the half-inhibitory concentration (IC50) came out at 58 nM (read-out: DUX4* MT FSHD2: IC50) and 58 nM (read-out: DUX4* MT FSHD2 IC50).
As for `C[C@@H]1C(=O)N(C)CCN1CCOc1ccc2nc(-c3ccc(-c4cn(C)c(=O)c5[nH]ccc45)cc3)ccc2c1` [SLU-2211, (R)-4-{4-[6-(2-(2,4-dimethyl-3-oxopiperazin-1-yl)ethoxy)quinolin-2-yl]phenyl}-6-methyl-1H-pyrrolo[2,3-c]pyridin-7(6H)-one], the IC50 was 62 nM (read-out: DUX4* MT FSHD2: IC50) and 62 nM (read-out: DUX4* MT FSHD2 IC50).
As to `Cn1cc(-c2ccc3nc(-c4ccc(OCCN5CCNC(=O)C5)cc4)ccc3c2)c2cc[nH]c2c1=O` [SLU-2242, 6-methyl-4-{2-[4-(2-(3-oxopiperazin-1-yl)ethoxy)phenyl]quinolin-6-yl}-1H-pyrrolo[2,3-c]pyridin-7(6H)-one], the IC50 is, setting by setting: (read-out: DUX4* MT FSHD2: IC50) 93 nM; (read-out: DUX4* MT FSHD2 IC50) 93 nM.
For `CC(=O)N1C[C@@H](C)N(CCOc2ccc(-c3ccc(-c4cn(C)c(=O)c5[nH]ccc45)cc3)cc2)[C@@H](C)C1` [SLU-2096, 4-{4′-[2-((2R,6S)-4-acetyl-2,6-dimethylpiperazin-1-yl)ethoxy]-[1,1′-biphenyl]-4-yl}-6-methyl-1H-pyrrolo[2,3-c]pyridin-7(6H)-one], the IC50 (read-out: DUX4* MT FSHD2: IC50) was determined as 180 nM and the IC50 (read-out: DUX4* MT FSHD2 IC50) came out at 180 nM.
Take `COc1cc(-c2ccc(OCCN3CCN(C)C(=O)[C@H]3C)cc2)ccc1-c1cn(C)c(=O)c2[nH]ccc12` [SLU-2102, (R)-4-{4′-[2-(2,4-dimethyl-3-oxopiperazin-1-yl)ethoxy]-3-methoxy-[1,1′-biphenyl]-4-yl}-6-methyl-1H-pyrrolo[2,3-c]pyridin-7(6H)-one]: the IC50 was found to be 130 nM (read-out: DUX4* MT FSHD2: IC50) and 130 nM (read-out: DUX4* MT FSHD2 IC50).
For `CN(C)CCOc1ccc(C2CCN(c3ccc(-c4cn(C)c(=O)c5[nH]ccc45)cn3)CC2)cc1` [SLU-2109, 4-{6-[4-(4-(2-(dimethylamino)ethoxy)phenyl)piperidin-1-yl]pyridin-3-yl}-6-methyl-1H-pyrrolo[2,3-c]pyridin-7(6H)-one], the IC50 was 33 nM (read-out: DUX4* MT FSHD2: IC50) and 33 nM (read-out: DUX4* MT FSHD2 IC50).
On to `COc1ccc(C2CCN(c3ccc(-c4cn(C)c(=O)c5[nH]ccc45)cn3)CC2)cc1` [SLU-2108, 4-{6-[4-(4-methoxyphenyl)piperidin-1-yl]pyridin-3-yl}-6-methyl-1H-pyrrolo[2,3-c]pyridin-7(6H)-one], for which the IC50 is, setting by setting: (read-out: DUX4* MT FSHD2: IC50) 280 nM; (read-out: DUX4* MT FSHD2 IC50) 280 nM.
Turning to `Cn1cc(-c2ccc(N3CCC4(CCNCC4)C3)nc2)c2cc[nH]c2c1=O` [SLU-2214, 4-[6-(2,8-diazaspiro[4.5]decan-2-yl)pyridin-3-yl]-6-methyl-1H-pyrrolo[2,3-c]pyridin-7(6H)-one], the IC50 by setting is: (read-out: DUX4* MT FSHD2: IC50) 95 nM; (read-out: DUX4* MT FSHD2 IC50) 95 nM.
`COc1cc(-c2ccc(OCCN3[C@H](C)CN(C(C)=O)C[C@@H]3C)cc2)ccc1-c1cn(C)c(=O)c2[nH]ccc12` [SLU-2098, 4-{4′-[2-((2R,6S)-4-acetyl-2,6-dimethylpiperazin-1-yl)ethoxy)-3-methoxy-[1,1′-biphenyl]-4-yl}-6-methyl-1H-pyrrolo[2,3-c]pyridin-7(6H)-one]: the IC50 (read-out: DUX4* MT FSHD2: IC50) amounted to 310 nM and the half-maximal inhibitory concentration (IC50) (read-out: DUX4* MT FSHD2 IC50) was determined as 310 nM.
In the case of `C[C@@H]1C(=O)N(C)CCN1CCOc1ccc(-c2ccc3nc(-c4cn(C(F)F)c(=O)c5[nH]ccc45)ccc3c2)cc1` [SLU-2325, (R)-6-(difluoromethyl)-4-{6-[4-(2-(2,4-dimethyl-3-oxopiperazin-1-yl)ethoxy)phenyl]quinolin-2-yl}-1H-pyrrolo[2,3-c]pyridin-7(6H)-one], the IC50 is 290 nM (read-out: DUX4* MT FSHD2: IC50) and 290 nM (read-out: DUX4* MT FSHD2 IC50).
In the case of `Cn1cc(-c2ccc(N3CCC(c4ccc(OCCn5cncn5)cc4)CC3)nc2)c2cc[nH]c2c1=O` [SLU-2119, 4-{6-[4-(4-(2-(1H-1,2,4-triazol-1-yl)ethoxy)phenyl)piperidin-1-yl]pyridin-3-yl}-6-methyl-1H-pyrrolo[2,3-c]pyridin-7(6H)-one], the IC50 is, setting by setting: (read-out: DUX4* MT FSHD2: IC50) 130 nM; (read-out: DUX4* MT FSHD2 IC50) 130 nM.
`Cn1cc(-c2ccc(N3CCC4(CCN(C(=O)CO)CC4)C3)nc2)c2cc[nH]c2c1=O` [SLU-2218, 4-{6-[8-(2-hydroxyacetyl)-2,8-diazaspiro[4.5]decan-2-yl]pyridin-3-yl}-6-methyl-1H-pyrrolo[2,3-c]pyridin-7(6H)-one]: the IC50 reads like this: (read-out: DUX4* MT FSHD2: IC50) 41 nM; (read-out: DUX4* MT FSHD2 IC50) 41 nM.
As for `Cn1cc(-c2ccc3nc(-c4ccc(OCCN5CCOCC5)cc4)ccc3c2)c2cc[nH]c2c1=O` [SLU-2234, 6-methyl-4-{2-[4-(2-morpholinoethoxy)phenyl]quinolin-6-yl}-1,6-dihydro-7H-pyrrolo[2,3-c]pyridin-7-one], the IC50 reads like this: (read-out: DUX4* MT FSHD2: IC50) 69 nM; (read-out: DUX4* MT FSHD2 IC50) 69 nM.
Regarding `C[C@@H]1C(=O)N(C)CCN1CCOc1cccc(-c2ccc3cc(-c4cn(C)c(=O)c5[nH]ccc45)ccc3n2)c1` [SLU-2301, (R)-4-{2-[3-(2-(2,4-dimethyl-3-oxopiperazin-1-yl)ethoxy)phenyl]quinolin-6-yl}-6-methyl-1H-pyrrolo[2,3-c]pyridin-7(6H)-one], the IC50 was 13 nM (read-out: DUX4* MT FSHD2: IC50) and 13 nM (read-out: DUX4* MT FSHD2 IC50).
As for `C[C@@H]1C(=O)N(C)CCN1CCCOc1cccc(-c2ccc3cc(-c4cn(C)c(=O)c5[nH]ccc45)ccc3n2)c1` [SLU-2292, (R)-4-{2-[3-(3-(2,4-dimethyl-3-oxopiperazin-1-yl)propoxy)phenyl]quinolin-6-yl}-6-methyl-1H-pyrrolo[2,3-c]pyridin-7(6H)-one], the concentration for half-maximal inhibition (IC50) is, setting by setting: (read-out: DUX4* MT FSHD2: IC50) 25 nM; (read-out: DUX4* MT FSHD2 IC50) 25 nM.
For `Cn1cc(-c2ccc(N3CCC(c4ccc(OCCN5CCOCC5)cc4)CC3)nc2)c2cc[nH]c2c1=O` [SLU-2118, 6-methyl-4-{6-[4-(4-(2-morpholinoethoxy)phenyl)piperidin-1-yl]pyridin-3-yl}-1H-pyrrolo[2,3-c]pyridin-7(6H)-one], the concentration for half-maximal inhibition (IC50) reads like this: (read-out: DUX4* MT FSHD2: IC50) 261 nM; (read-out: DUX4* MT FSHD2 IC50) 261 nM.
In the case of `CC(=O)N1C[C@@H](C)N(CCOc2ccc(-c3ccc4cc(-c5cn(C)c(=O)c6[nH]ccc56)ccc4n3)cc2)[C@@H](C)C1` [SLU-2107, 4-{2-[4-(2-((2R,6S)-4-acetyl-2,6-dimethylpiperazin-1-yl)ethoxy)phenyl]quinolin-6-yl}-6-methyl-1H-pyrrolo[2,3-c]pyridin-7(6H)-one], the IC50 is, setting by setting: (read-out: DUX4* MT FSHD2: IC50) 48 nM; (read-out: DUX4* MT FSHD2 IC50) 48 nM.
As for `CN1CCN(CCOc2ccc(-c3ccc4cc(-c5cn(C)c(=O)c6[nH]ccc56)ccc4n3)cc2)CCC1=O` [SLU-2277, 6-methyl-4-{2-[4-(2-(4-methyl-5-oxo-1,4-diazepan-1-yl)ethoxy)phenyl]quinolin-6-yl}-1,6-dihydro-7H-pyrrolo[2,3-c]pyridin-7-one], the IC50 by setting is: (read-out: DUX4* MT FSHD2: IC50) 20 nM; (read-out: DUX4* MT FSHD2 IC50) 20 nM.
